pKi: −log10 of the molar value.
These compounds were tested against T1, recombinant human NK3 receptor (Homo sapiens, UniProt P29371) (assay: [3H]SR142801 competition binding assay). Conditions: not given.
T1 construct: expressed in transfected cells; host or cells: HEK293 cells, transient expression; membranes
T1 sequence (P29371 1-465): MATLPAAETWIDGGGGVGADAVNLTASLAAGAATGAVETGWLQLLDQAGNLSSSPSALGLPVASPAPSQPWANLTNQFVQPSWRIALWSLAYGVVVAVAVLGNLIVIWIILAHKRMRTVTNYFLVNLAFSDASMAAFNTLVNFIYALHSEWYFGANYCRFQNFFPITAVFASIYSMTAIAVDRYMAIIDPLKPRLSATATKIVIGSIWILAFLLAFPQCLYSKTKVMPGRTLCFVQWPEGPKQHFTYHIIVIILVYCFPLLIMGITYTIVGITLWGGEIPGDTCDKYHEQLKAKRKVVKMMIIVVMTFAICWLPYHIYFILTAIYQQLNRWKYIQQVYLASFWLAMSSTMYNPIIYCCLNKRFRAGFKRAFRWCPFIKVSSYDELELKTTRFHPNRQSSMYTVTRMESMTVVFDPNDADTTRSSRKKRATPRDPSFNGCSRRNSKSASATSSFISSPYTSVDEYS

Compared with CN(C(=O)OCCC(F)(F)F)[C@@H]1CN(C(=O)C2CCN(C(=O)C3(C)CC3)CC2)C[C@H]1c1ccc(Cl)c(Cl)c1 (stereo in doubt) [Example 87, {(3S,4R)-4-(3,4-Dichloro-phenyl)-1-[1-(1-methyl-cyclopropanecarbonyl)-piperidine-4-carbonyl]-pyrrolidin-3-yl}-methyl-carbamic acid 3,3,3-trifluoro-propyl ester], CN(C(=O)Oc1ccc(F)cc1)[C@H]1CN(C(=O)C2CCN(C(=O)C3(C)CC3)CC2)C[C@@H]1c1ccc(Cl)c(Cl)c1 [Example 5, {(3R,4S)-4-(3,4-Dichloro-phenyl)-1-[1-(1-methyl-cyclopropanecarbonyl)-piperidine-4-carbonyl]-pyrrolidin-3-yl}-methyl-carbamic acid 4-fluoro-phenyl ester] is 0.79 log units lower in pKi: 8.04 for the first, 7.25 for the second. The first binds more tightly here.

CN(C(=O)O[C@H]1CC[C@H](C(F)(F)F)CC1)[C@@H]1CN(C(=O)C2CCN(C3CCOCC3)CC2)CC1c1ccc(Cl)c(Cl)c1 (stereo in doubt) [Example 123, {(3S,4R)-4-(3,4-Dichloro-phenyl)-1-[1-(tetrahydro-pyran-4-yl)-piperidine-4-carbonyl]-pyrrolidin-3-yl}-methyl-carbamic acid 4-trifluoromethyl-cyclohexyl ester] and CN(C(=O)Oc1ccc(F)cc1)[C@@H]1CN(C(=O)C2CCOCC2)C[C@H]1c1ccc(Cl)c(Cl)c1 [Example 51, [(3S,4R)-4-(3,4-Dichloro-phenyl)-1-(tetrahydro-pyran-4-carbonyl)-pyrrolidin-3-yl]-methyl-carbamic acid 4-fluoro-phenyl ester] are within 0.2 log units of each other in pKi: 8.55 for the first, 8.74 for the second.

CN(C(=O)Oc1ccc(F)cc1)[C@@H]1CN(C(=O)C2CCN(C(=O)C3(C)CC3)CC2)C[C@H]1c1ccc(Cl)c(Cl)c1 [Example 6, {(3S,4R)-4-(3,4-Dichloro-phenyl)-1-[1-(1-methyl-cyclopropanecarbonyl)-piperidine-4-carbonyl]-pyrrolidin-3-yl}-methyl-carbamic acid 4-fluoro-phenyl ester] and Cc1ccc(OC(=O)N(C)[C@@H]2CN(C(=O)C3CCN(C(=O)C4(C)CC4)CC3)C[C@H]2c2ccc(Cl)c(Cl)c2)cc1 [Example 17, {(3S,4R)-4-(3,4-Dichloro-phenyl)-1-[1-(1-methyl-cyclopropanecarbonyl)-piperidine-4-carbonyl]-pyrrolidin-3-yl}-methyl-carbamic acid p-tolyl ester] are within 0.2 log units of each other in pKi: 9.30 for the first, 9.15 for the second.

First: CN(C(=O)Oc1ccc(Cl)cc1)[C@@H]1CN(C(=O)C2CCN(C(=O)C3(C)CC3)CC2)C[C@H]1c1ccc(Cl)c(Cl)c1 [Example 19, {(3S,4R)-4-(3,4-Dichloro-phenyl)-1-[1-(1-methyl-cyclopropanecarbonyl)-piperidine-4-carbonyl]-pyrrolidin-3-yl}-methyl-carbamic acid 4-chlorophenyl ester]
Second: CN(C(=O)Oc1ccc(F)cc1)[C@H]1CN(C(=O)C2CCN(C(=O)C3(C)CC3)CC2)C[C@@H]1c1ccc(Cl)cc1 [Example 38, {(3R,4S)-4-(4-Chloro-phenyl)-1-[1-(1-methyl-cyclopropanecarbonyl)-piperidine-4-carbonyl]-pyrrolidin-3-yl}-methyl-carbamic acid 4-fluoro-phenyl ester]
The pKi of the first is 2.32 log units higher: 9.70 for the first, 7.38 for the second. The first binds more tightly here.

Going from COc1ccc(OC(=O)N(C)[C@H]2CN(C(=O)C3CCN(CC4CC4)CC3)C[C@@H]2c2ccc(Cl)c(Cl)c2)cc1 [Example 20, [(3R,4S)-1-(1-Cyclopropylmethyl-piperidine-4-carbonyl)-4-(3,4-dichloro-phenyl)-pyrrolidin-3-yl]-methyl-carbamic acid 4-methoxy-phenyl ester] to COc1ccc(OC(=O)N(C)[C@@H]2CN(C(=O)C3CCN(CC4CC4)CC3)C[C@H]2c2ccc(Cl)c(Cl)c2)cc1 [Example 21, [(3S,4R)-1-(1-Cyclopropylmethyl-piperidine-4-carbonyl)-4-(3,4-dichloro-phenyl)-pyrrolidin-3-yl]-methyl-carbamic acid 4-methoxy-phenyl ester], the pKi rises from 7.14 to 7.98 (0.84 log units). The second binds more tightly here.

Compared with CN(C(=O)Oc1ccc(F)cc1)[C@@H]1CN(C(=O)C2CCN(C(=O)C3(C)CC3)CC2)C[C@H]1c1ccc(Cl)cc1 [Example 39, {(3S,4R)-4-(4-Chloro-phenyl)-1-[1-(1-methyl-cyclopropanecarbonyl)-piperidine-4-carbonyl]-pyrrolidin-3-yl}-methyl-carbamic acid 4-fluoro-phenyl ester], CN(C(=O)Oc1ccc(F)cc1)[C@@H]1CN(C(=O)[C@H]2CC[C@H](O)CC2)C[C@H]1c1ccc(Cl)cc1 [Example 89, [(3S,4R)-4-(4-Chloro-phenyl)-1-(4-hydroxy-cyclohexanecarbonyl)-pyrrolidin-3-yl]-methyl-carbamic acid 4-fluoro-phenyl ester] is 0.27 log units lower in pKi: 7.96 for the first, 7.69 for the second. The first binds more tightly here.

First: CN(C(=O)Oc1ccc(F)cc1)[C@@H]1CN(C(=O)[C@H]2CC[C@@H](O)CC2)C[C@H]1c1ccc(Cl)c(Cl)c1 [Example 60, [(3S,4R)-4-(3,4-Dichloro-phenyl)-1-(cis-4-hydroxy-cyclohexanecarbonyl)-pyrrolidin-3-yl]-methyl-carbamic acid 4-fluoro-phenyl ester]
Second: CN(C(=O)Oc1ccc(F)cc1)[C@@H]1CN(C(=O)[C@H]2CC[C@H](C#N)CC2)C[C@H]1c1ccc(Cl)cc1 [Example 104, [(3S,4R)-4-(4-Chloro-phenyl)-1-(4-cyano-cyclohexanecarbonyl)-pyrrolidin-3-yl]-methyl-carbamic acid 4-fluoro-phenyl ester]
The pKi of the first is 0.64 log units higher: 8.77 for the first, 8.13 for the second.

CN(C(=O)Oc1ccc(F)cc1)[C@@H]1CN(C(=O)C2CCOCC2)C[C@H]1c1ccc(Cl)cc1 [Example 90, [(3S,4R)-4-(4-Chloro-phenyl)-1-(tetrahydro-pyran-4-carbonyl)-pyrrolidin-3-yl]-methyl-carbamic acid 4-fluoro-phenyl ester] and CN(C(=O)Oc1ccc(F)cc1)[C@@H]1CN(C(=O)C2CCS(=O)(=O)CC2)C[C@H]1c1ccc(Cl)cc1 [Example 93, [(3S,4R)-4-(4-Chloro-phenyl)-1-(1,1-dioxo-hexahydro-1λ^6-thiopyran-4-carbonyl)-pyrrolidin-3-yl]-methyl-carbamic acid 4-fluoro-phenyl ester] are within 0.2 log units of each other in pKi: 8.10 for the first, 8.18 for the second.

CN(C(=O)Oc1ccc(F)cc1)[C@@H]1CN(C(=O)C2CCN(c3ccc(C#N)cn3)CC2)C[C@H]1c1ccc(Cl)cc1 [Example 94, [(3S,4R)-4-(4-Chloro-phenyl)-1-(5′-cyano-3,4,5,6-tetrahydro-2H-[1,2′]bipyridinyl-4-carbonyl)-pyrrolidin-3-yl]-methyl-carbamic acid 4-fluoro-phenyl ester] gave a pKi of 9.70.

Same assay, conditions: hNK-3 receptor affinity; membranes from HEK293 cells transiently expressing recombinant human NK3 receptor; [3H]SR142801; Cheng-Prussoff; read-out: Data Ki

Going from CN(C(=O)OCCC1CC1)[C@H]1CN(C(=O)C2CCN(C(=O)C3(C)CC3)CC2)C[C@@H]1c1ccc(Cl)c(Cl)c1 [Example 35, {(3R,4S)-4-(3,4-Dichloro-phenyl)-1-[1-(1-methyl-cyclopropanecarbonyl)-piperidine-4-arbonyl]-pyrrolidin-3-yl}-methyl-carbamic acid 2-cyclopropyl-ethyl ester] to CN(C(=O)OCCC1CC1)[C@@H]1CN(C(=O)C2CCN(C(=O)C3(C)CC3)CC2)C[C@H]1c1ccc(Cl)c(Cl)c1 [Example 36, {(3S,4R)-4-(3,4-Dichloro-phenyl)-1-[1-(1-methyl-cyclopropanecarbonyl)-piperidine-4-arbonyl]-pyrrolidin-3-yl}-methyl-carbamic acid 2-cyclopropyl-ethyl ester], the pKi rises from 7.09 to 7.48 (0.39 log units).

Compared with CN(C(=O)OCCCC(F)(F)F)[C@H]1CN(C(=O)C2CCN(C(=O)C3(C)CC3)CC2)C[C@@H]1c1ccc(Cl)c(Cl)c1 [Example 81, {(3R,4S)-4-(3,4-Dichloro-phenyl)-1-[1-(1-methyl-cyclopropanecarbonyl)-piperidine-4-carbonyl]-pyrrolidin-3-yl}-methyl-carbamic acid 4,4,4-trifluoro-butyl ester], CN(C(=O)OCCCC(F)(F)F)[C@@H]1CN(C(=O)C2CCN(C(=O)C3(C)CC3)CC2)C[C@H]1c1ccc(Cl)c(Cl)c1 [Example 82, {(3S,4R)-4-(3,4-Dichloro-phenyl)-1-[1-(1-methyl-cyclopropanecarbonyl)-piperidine-4-carbonyl]-pyrrolidin-3-yl}-methyl-carbamic acid 4,4,4-trifluoro-butyl ester] is 1.68 log units higher in pKi: 7.17 for the first, 8.85 for the second.

Compared with CN(C(=O)OCCCC(F)(F)F)[C@H]1CN(C(=O)C2CCN(C(=O)C3(C)CC3)CC2)C[C@@H]1c1ccc(Cl)cc1 [Example 100, {(3R,4S)-4-(4-Chloro-phenyl)-1-[1-(1-methyl-cyclopropanecarbonyl)-piperidine-4-carbonyl]-pyrrolidin-3-yl}-methyl-carbamic acid 4,4,4-trifluoro-butyl ester], CN(C(=O)OCC1(C)CC1)[C@@H]1CN(C(=O)C2CCN(C(=O)C3(C)CC3)CC2)C[C@H]1c1ccc(Cl)c(Cl)c1 [Example 105, {(3S,4R)-4-(3,4-Dichloro-phenyl)-1-[1-(1-methyl-cyclopropanecarbonyl)-piperidine-4-carbonyl]-pyrrolidin-3-yl}-methyl-carbamic acid 1-methyl-cyclopropylmethyl ester] is 0.76 log units lower in pKi: 7.91 for the first, 7.15 for the second. The first binds more tightly here.

Compound CN(C(=O)OCC1(C)CC1)[C@H]1CN(C(=O)C2CCN(C(=O)C3(C)CC3)CC2)C[C@@H]1c1ccc(Cl)c(Cl)c1 [Example 106, {(3R,4S)-4-(3,4-Dichloro-phenyl)-1-[1-(1-methyl-cyclopropanecarbonyl)-piperidine-4-carbonyl]-pyrrolidin-3-yl}-methyl-carbamic acid 1-methyl-cyclopropylmethyl ester] has a pKi of 9.00.
